ChEMBL document CHEMBL3639060, “Tetrahydropyrido-pyridine and tetrahydropyrido-pyrimidine compounds and use thereof as C5a receptor modulators” (2014)
pIC50: −log10 of the molar value.

Molecular target: T1, C5a anaphylatoxin chemotactic receptor 1 (Homo sapiens, UniProt P21730)
T1 sequence (P21730 whole entry): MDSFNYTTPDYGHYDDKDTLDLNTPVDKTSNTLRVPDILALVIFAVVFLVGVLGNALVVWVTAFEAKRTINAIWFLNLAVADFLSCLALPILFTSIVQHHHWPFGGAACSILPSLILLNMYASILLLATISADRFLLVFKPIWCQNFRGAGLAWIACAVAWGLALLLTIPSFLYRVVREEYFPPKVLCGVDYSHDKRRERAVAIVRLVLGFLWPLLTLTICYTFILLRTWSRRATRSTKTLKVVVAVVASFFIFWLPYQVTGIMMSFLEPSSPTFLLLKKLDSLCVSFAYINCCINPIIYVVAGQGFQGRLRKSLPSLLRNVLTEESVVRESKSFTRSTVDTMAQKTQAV
Experiment: FLIPR Assay: Compounds were tested for their ability to inhibit C5a-mediated calcium mobilization using a stable cell line over expressing the human C5aR & the Galpha 15 protein on the FLIPR (Fluorescent Imaging Plate Reader) Tetra system. Cells were maintained in culture media containing DMEM (Dulbecco's Modified Eagle Medium) with 4.5 g/L glucose, 10% fetal bovine serum, 100 U/mL, 1x non-essential amino acid, and 250 ug/mL G418 (Geneticin). Prior to testing of compounds, cells were plated at 10,000 cells/well in clear bottom 384-well black plate, and incubated overnight at 37C. with 5% CO2. On the day of experiment, culture media was removed, and replaced with assay buffer HBSS (Hanks' Balanced Salt Solution) with 20 mM HEPES (4-(2-hydroxyethyl)-1-piperazineethanesulfonic acid) and 0.1% BSA (bovine serum albumin) BSA containing calcium 5 dye (Molecular Devices) and 2.5 mM probenecid. After 1 hour incubation at 37C., 5% CO2 for 60 min, cells were pre-incubated with compounds for 30 minutes.
Assay type: functional

Compound	pIC50
CO[C@H]1CCN(c2nc(-c3c(Cl)cnc4[nH]ccc34)nc3c2CN(c2cc(C4CC4)ccc2C)CC3)CC1(C)C	7.33
CO[C@@H]1CCN(c2nc(-c3c(C)ccc4[nH]nc(C)c34)nc3c2CN(c2c(Cl)c(C(C)C)nn2C)CC3)[C@H](C)C1	8.70
